{"source": "paper PMC12198282", "about": "“Application of a high-density microelectrode array assay using a 3D human iPSC-derived brain microphysiological system model for in vitro neurotoxicity screening of environmental compounds” (Archives of Toxicology, 2025)", "key": {"[1]": {"system": "2D rat cortical cultures", "conditions": "cited from earlier work; for AC50: rNFA mc5"}, "[2]": {"system": "co-culture of iPSC-derived excitatory and inhibitory neurons, and primary human astrocytes", "design": "method as in Bartmann et al. [2023]", "conditions": "ref Bartmann et al. [2023], cited from earlier work"}, "[3]": {"system": "BrainSpheres", "assay": "Cytotoxicity evaluation, resazurin assay (BrainSphere.Cyto)", "assay_type": "cell-based, human", "method_in_brief": "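BrainSpheres were cultured for 7 weeks under gyratory shaking and then exposed to compounds for 13 days. Resazurin at 0.1 mg/ml final was added for 3 h at 37 °C, and fluorescence was read at ex 530/em 590 nm as a viability measure.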"}, "[4]": {"system": "2D rat cortical cultures", "conditions": "rNFA mc5 hit call; cytotoxicity AlamarBlue; cited from earlier work"}}, "note": "pEC50: −log10 of the molar value. Like-named read-outs stand apart in the source and are kept apart here."}
{"smiles": "CC1(C)[C@H](C(=O)O[C@H](C#N)c2cccc(Oc3ccccc3)c2)[C@@H]1C=C(Br)Br", "note": "[Deltamethrin]", "values": [{"measurement": "AC50", "setting": "[1]; aenm active_electrodes_number, read-out: ac50 CCTE_Shafer_MEA_dev_active_electrodes_number", "result": 8.89, "unit": "µM"}, {"measurement": "AC50", "setting": "[1]; aenm burst_duration_mean, read-out: ac50 CCTE_Shafer_MEA_dev_burst_duration_mean", "result": 5.29, "unit": "µM"}, {"measurement": "AC50", "setting": "[1]; aenm burst_rate, read-out: ac50 CCTE_Shafer_MEA_dev_burst_rate", "result": 3.87, "unit": "µM"}, {"measurement": "AC50", "setting": "[1]; aenm bursting_electrodes_number, read-out: ac50 CCTE_Shafer_MEA_dev_bursting_electrodes_number", "result": 3.71, "unit": "µM"}, {"measurement": "AC50", "setting": "[1]; aenm correlation_coefficient_mean, read-out: ac50 CCTE_Shafer_MEA_dev_correlation_coefficient_mean", "result": 2.04, "unit": "µM"}, {"measurement": "AC50", "setting": "[1]; aenm firing_rate_mean, read-out: ac50 CCTE_Shafer_MEA_dev_firing_rate_mean", "result": 3.1, "unit": "µM"}, {"measurement": "AC50", "setting": "[1]; aenm mutual_information_norm, read-out: ac50 CCTE_Shafer_MEA_dev_mutual_information_norm", "result": 0.641, "unit": "µM"}, {"measurement": "AC50", "setting": "[1]; aenm network_spike_duration_std, read-out: ac50 CCTE_Shafer_MEA_dev_network_spike_duration_std", "result": 3.82, "unit": "µM"}, {"measurement": "AC50", "setting": "[1]; aenm network_spike_number, read-out: ac50 CCTE_Shafer_MEA_dev_network_spike_number", "result": 0.853, "unit": "µM"}, {"measurement": "AC50", "setting": "[1]; aenm network_spike_peak, read-out: ac50 CCTE_Shafer_MEA_dev_network_spike_peak", "result": 7.54, "unit": "µM"}, {"measurement": "AC50", "setting": "[1]; aenm per_burst_interspike_interval, read-out: ac50 CCTE_Shafer_MEA_dev_per_burst_interspike_interval", "result": 15, "unit": "µM"}, {"measurement": "AC50", "setting": "[1]; aenm per_burst_spike_percent, read-out: ac50 CCTE_Shafer_MEA_dev_per_burst_spike_percent", "result": 7.16, "unit": "µM"}, {"measurement": "AC50", "setting": "[1]; aenm per_network_spike_spike_number_mean, read-out: ac50 CCTE_Shafer_MEA_dev_per_network_spike_spike_number_mean", "result": 3.96, "unit": "µM"}, {"measurement": "AC50", "setting": "[1]; aenm per_network_spike_spike_percent, read-out: ac50 CCTE_Shafer_MEA_dev_per_network_spike_spike_percent", "result": 1.8, "unit": "µM"}, {"measurement": "AC50", "setting": "[1]; aenm spike_duration_mean, read-out: ac50 CCTE_Shafer_MEA_dev_spike_duration_mean", "result": 6.4, "unit": "µM"}, {"measurement": "hitc CCTE_Shafer_MEA_dev_active_electrodes_number", "setting": "[1]; rNFA mc5 hit call, aenm active_electrodes_number", "result": 1}, {"measurement": "hitc CCTE_Shafer_MEA_dev_burst_duration_mean", "setting": "[1]; rNFA mc5 hit call, aenm burst_duration_mean", "result": 1}, {"measurement": "hitc CCTE_Shafer_MEA_dev_burst_rate", "setting": "[1]; rNFA mc5 hit call, aenm burst_rate", "result": 1}, {"measurement": "hitc CCTE_Shafer_MEA_dev_bursting_electrodes_number", "setting": "[1]; rNFA mc5 hit call, aenm bursting_electrodes_number", "result": 1}, {"measurement": "hitc CCTE_Shafer_MEA_dev_correlation_coefficient_mean", "setting": "[1]; rNFA mc5 hit call, aenm correlation_coefficient_mean", "result": 1}, {"measurement": "hitc CCTE_Shafer_MEA_dev_firing_rate_mean", "setting": "[1]; rNFA mc5 hit call, aenm firing_rate_mean", "result": 1}, {"measurement": "hitc CCTE_Shafer_MEA_dev_inter_network_spike_interval_mean", "setting": "[1]; rNFA mc5 hit call, aenm inter_network_spike_interval_mean", "result": 0}, {"measurement": "hitc CCTE_Shafer_MEA_dev_interburst_interval_mean", "setting": "[1]; rNFA mc5 hit call, aenm interburst_interval_mean", "result": 0}, {"measurement": "hitc CCTE_Shafer_MEA_dev_mutual_information_norm", "setting": "[1]; rNFA mc5 hit call, aenm mutual_information_norm", "result": 1}, {"measurement": "hitc CCTE_Shafer_MEA_dev_network_spike_duration_std", "setting": "[1]; rNFA mc5 hit call, aenm network_spike_duration_std", "result": 1}, {"measurement": "hitc CCTE_Shafer_MEA_dev_network_spike_number", "setting": "[1]; rNFA mc5 hit call, aenm network_spike_number", "result": 1}, {"measurement": "hitc CCTE_Shafer_MEA_dev_network_spike_peak", "setting": "[1]; rNFA mc5 hit call, aenm network_spike_peak", "result": 1}, {"measurement": "hitc CCTE_Shafer_MEA_dev_per_burst_interspike_interval", "setting": "[1]; rNFA mc5 hit call, aenm per_burst_interspike_interval", "result": 1}, {"measurement": "hitc CCTE_Shafer_MEA_dev_per_burst_spike_percent", "setting": "[1]; rNFA mc5 hit call, aenm per_burst_spike_percent", "result": 1}, {"measurement": "hitc CCTE_Shafer_MEA_dev_per_network_spike_spike_number_mean", "setting": "[1]; rNFA mc5 hit call, aenm per_network_spike_spike_number_mean", "result": 1}, {"measurement": "hitc CCTE_Shafer_MEA_dev_per_network_spike_spike_percent", "setting": "[1]; rNFA mc5 hit call, aenm per_network_spike_spike_percent", "result": 1}, {"measurement": "hitc CCTE_Shafer_MEA_dev_spike_duration_mean", "setting": "[1]; rNFA mc5 hit call, aenm spike_duration_mean", "result": 1}, {"measurement": "pEC50", "setting": "[2]; read-out: Mean potency in the hNNF", "result": 5.45}, {"measurement": "pEC50", "setting": "[2]; read-out: Minimum potency in the hNNF", "result": 5.56}, {"measurement": "Cytotoxicity / cell viability in the BrainSphere resazurin assay (in words)", "setting": "[3]", "result": "magnitude of the response was not sufficient to indicate a positive response"}, {"measurement": "AC50", "setting": "[3]; Homo sapiens, 312 h, resazurin, day 13, Supplement 3 prints it also for curves with hit call 0, read-out: ac50 BrainSphere.Cyto", "result": 45, "unit": "µM"}, {"measurement": "Cytotoxicity hit", "setting": "[3]; human", "result": 0}, {"measurement": "hitc BrainSphere.Cyto", "setting": "[3]; resazurin, day 13, tcplfit2", "result": 0}, {"measurement": "BMD BrainSphere.Cyto", "setting": "[3]; tcplfit2 BMD at benchmark response (1.349*SD of baseline controls)", "result": 102, "unit": "µM"}, {"measurement": "hitc CCTE_Shafer_MEA_dev_AB", "setting": "[4]", "result": 0}]}
